Key:
[1] = test system: GK rats; settings: 9-week dietary administration, 0.005%: 4.1 mg/kg·day; cited from earlier work
[2] = test system: KK-A^y mice; test: Fasting blood glucose level after 2-week feeding of the test diet (Example 2); type: in vivo, mouse; settings: 2-week feeding of test diet (10% BBG9-1 dried cells and/or 0.0003% voglibose in CE-2), fasted overnight, FIG. 1
Text: (§1) As the voglibose, BASEN (registered trade name) tablets 0.2 (made by Takeda Pharmaceutical Company Ltd.) were crushed and used. Female KK-A^y mice (strain name KK-A^y/TaJcl) at 8 weeks old were purchased (from CLEA Japan, Inc.) and preliminarily reared in separate cages for 2 weeks. A KK-A^y mouse is a diabetic model mouse. In the preliminary rearing, free access to a commercial powder diet (trade name: CE-2, made by CLEA Japan, Inc.) and tap water was provided. On the first day of the experiment, the oral glucose tolerance test (OGTT) was conducted. That is, to the mice kept fasted from the previous day, a glucose solution ((2 g in 5 mL)/kg) was orally administered. […] Accu-Check Aviva, made by Roche Diagnostics). The area under the blood concentration-time curve (AUC) was calculated, and based on the AUC, the mice were divided into the following 4 groups […] mice/group). The grouped mice were given free access to the test diet. Group A: a group fed with CE-2 containing 10% dextrin. […] Group C: a group fed with CE-2 containing 10% dextrin and 0.0003% voglibose. […] Each group was fed with the test diet for 2 weeks as above, fasted overnight, and then measured for fasting glucose level with use of Accu-Check Aviva. […] The significant difference of each group from Group A was evaluated using Durmett's test, and the significant difference between 2 groups was evaluated using t-test.

[3] = test system: KK-A^y mice; test: Oral glucose tolerance test (OGTT) after 6-week feeding of the test diet (Example 2); type: in vivo, mouse
Text: as §1

For OCC(CO)N[C@H]1C[C@](O)(CO)[C@@H](O)[C@H](O)[C@H]1O [voglibose, 1L(1S)-(1(OH),2,4,5/1,3)-5-[[2-hydroxy-1-(hydroxymethyl)-ethyl]amino]-1-C-(hydroxymethyl)-1,2,3,4-cyclohexane tetrol], the glucose tolerance [1] is given as “improved the glucose tolerance”, the “fasting blood glucose level” value [2] is given as “neither BBG9-1 alone nor voglibose alone decreased the fasting blood glucose level” and the glucose tolerance ([3]; 6-week dietary administration, voglibose 0.0003%: 0.6 mg/kg·day) is given as “did not improve the glucose tolerance”. The “blood glucose level in the OGTT after glucose loading” value ([3]; 6-week feeding (10% BBG9-1 dried cells and/or 0.0003% voglibose in CE-2), glucose 2 g/kg oral, FIG. 2) was “neither BBG9-1 alone nor voglibose alone inhibited the increase in the blood glucose level”.

Source: patent publication US8889375B2, “Hypoglycemic effect enhancer” (Biofermin Pharmaceutical Co., Ltd., priority 2009, dated 2014)
